Results on five compounds are retold here after PubChem BioAssay AID1259407 (Chemical Carcinogenesis Research Information System (CCRIS), 2018).

The subject of this data set is CCRIS mutagenicity, Ames/micronucleus/aberration tests. Nature of the data set: CCRIS mutagenicity studies.
The mark [1] stands for this setting: Test System: AMES SALMONELLA TYPHIMURIUM, Strain/Indicator: TA98, Metabolic Activation: NONE, Method: PREINCUBATION
The mark [2] stands for this setting: Test System: AMES SALMONELLA TYPHIMURIUM, Strain/Indicator: TA100, Metabolic Activation: NONE, Method: PREINCUBATION
The mark [3] stands for this setting: Test System: AMES SALMONELLA TYPHIMURIUM, Strain/Indicator: TA98, Metabolic Activation: NONE, Method: STANDARD PLATE.
[4] abbreviates: Test System: AMES SALMONELLA TYPHIMURIUM, Strain/Indicator: TA98, Metabolic Activation: RAT, LIVER, S-9, AROCLOR 1254, Method: STANDARD PLATE.
Setting [5] is: Test System: AMES SALMONELLA TYPHIMURIUM, Strain/Indicator: TA100, Metabolic Activation: NONE, Method: STANDARD PLATE.
[6] abbreviates: Test System: AMES SALMONELLA TYPHIMURIUM, Strain/Indicator: TA100, Metabolic Activation: RAT, LIVER, S-9, AROCLOR 1254, Method: STANDARD PLATE.
Setting [7] is: Test System: AMES SALMONELLA TYPHIMURIUM, Strain/Indicator: TA1535, Metabolic Activation: NONE, Method: STANDARD PLATE.
[8] abbreviates: Test System: AMES SALMONELLA TYPHIMURIUM, Strain/Indicator: TA1537, Metabolic Activation: NONE, Method: STANDARD PLATE.

Each structure is given as a SMILES string. Calls of active or inactive are those of the source. No rule for the calls is given here.

With `Nc1cc([N+](=O)[O-])cc(Cl)c1O`, the mutagenic call by setting is: (Test System: AMES SALMONELLA TYPHIMURIUM, Strain/Indicator: TA97, Metabolic Activation: HAMSTER, LIVER, S-9, AROCLOR 1254 (10%), Method: PREINCUBATION) “active; positive”; (Test System: AMES SALMONELLA TYPHIMURIUM, Strain/Indicator: TA97, Metabolic Activation: NONE, Method: PREINCUBATION) “active; positive”; (Test System: AMES SALMONELLA TYPHIMURIUM, Strain/Indicator: TA97, Metabolic Activation: RAT, LIVER, S-9, AROCLOR 1254 (10%), Method: PREINCUBATION) “active; positive”; (Test System: AMES SALMONELLA TYPHIMURIUM, Strain/Indicator: TA98, Metabolic Activation: HAMSTER, LIVER, S-9, AROCLOR 1254 (10%), Method: PREINCUBATION) “active; positive”; under setting [1], “active; positive”; (Test System: AMES SALMONELLA TYPHIMURIUM, Strain/Indicator: TA98, Metabolic Activation: RAT, LIVER, S-9, AROCLOR 1254 (10%), Method: PREINCUBATION) “active; positive”. Besides, the mutagenic call by setting is: (Test System: AMES SALMONELLA TYPHIMURIUM, Strain/Indicator: TA100, Metabolic Activation: HAMSTER, LIVER, S-9, AROCLOR 1254 (10%), Method: PREINCUBATION) “inactive; negative”; under setting [2], “active; positive”; (Test System: AMES SALMONELLA TYPHIMURIUM, Strain/Indicator: TA100, Metabolic Activation: RAT, LIVER, S-9, AROCLOR 1254 (10%), Method: PREINCUBATION) “active; positive”; (Test System: AMES SALMONELLA TYPHIMURIUM, Strain/Indicator: TA1535, Metabolic Activation: HAMSTER, LIVER, S-9, AROCLOR 1254 (10%), Method: PREINCUBATION) “inactive; negative”; (Test System: AMES SALMONELLA TYPHIMURIUM, Strain/Indicator: TA1535, Metabolic Activation: NONE, Method: PREINCUBATION) “inactive; negative”; (Test System: AMES SALMONELLA TYPHIMURIUM, Strain/Indicator: TA1535, Metabolic Activation: RAT, LIVER, S-9, AROCLOR 1254 (10%), Method: PREINCUBATION) “inactive; negative”.
Turning to `Nc1ccc(CCc2ccccc2)cc1`, the mutagenic call was “inactive; negative” under setting [3], “active; positive” under setting [4], “inactive; negative” under setting [5] and “active; positive” under setting [6].
Turning to `CCN(CC)CCNc1ccc(CO)c2sc3ccccc3c(=O)c12`, the mutagenic call is, setting by setting: (Test System: AMES SALMONELLA TYPHIMURIUM, Strain/Indicator: TA98, Metabolic Activation: HAMSTER, LIVER, S-9, AROCLOR 1254 (30%), Method: PREINCUBATION) “active; positive”; under setting [1], “active; positive”; under setting [3], “active; positive”; (Test System: AMES SALMONELLA TYPHIMURIUM, Strain/Indicator: TA98, Metabolic Activation: RAT, LIVER, S-9, AROCLOR 1254 (30%), Method: PREINCUBATION) “active; positive”; (Test System: AMES SALMONELLA TYPHIMURIUM, Strain/Indicator: TA98, Metabolic Activation: RAT, LIVER, S-9, AROCLOR 1254 OR PHENOBARBITOL, Method: STANDARD PLATE) “active; positive”; (Test System: AMES SALMONELLA TYPHIMURIUM, Strain/Indicator: TA98, Metabolic Activation: RAT, LIVER, S-9, KC500 OR PHENOBARBITAL, Method: LIQUID SUSPENSION) “active; positive”. The mutagenic call runs as follows: (Test System: AMES SALMONELLA TYPHIMURIUM, Strain/Indicator: TA100, Metabolic Activation: HAMSTER, LIVER, S-9, AROCLOR 1254 (30%), Method: PREINCUBATION) “active; positive”; under setting [2], “active; positive”; under setting [5], “active; positive”; (Test System: AMES SALMONELLA TYPHIMURIUM, Strain/Indicator: TA100, Metabolic Activation: RAT, LIVER, S-9, AROCLOR 1254 (30%), Method: PREINCUBATION) “active; positive”; (Test System: AMES SALMONELLA TYPHIMURIUM, Strain/Indicator: TA100, Metabolic Activation: RAT, LIVER, S-9, AROCLOR 1254 OR PHENOBARBITOL, Method: STANDARD PLATE) “active; positive”; (Test System: AMES SALMONELLA TYPHIMURIUM, Strain/Indicator: TA100, Metabolic Activation: RAT, LIVER, S-9, KC500 OR PHENOBARBITAL, Method: LIQUID SUSPENSION) “active; positive”. Also, the mutagenic call by setting is: under setting [7], “inactive; negative”; (Test System: AMES SALMONELLA TYPHIMURIUM, Strain/Indicator: TA1535, Metabolic Activation: RAT, LIVER, S-9, AROCLOR 1254 OR PHENOBARBITOL, Method: STANDARD PLATE) “inactive; negative”; under setting [8], “active; positive”; (Test System: AMES SALMONELLA TYPHIMURIUM, Strain/Indicator: TA1537, Metabolic Activation: RAT, LIVER, S-9, AROCLOR 1254 OR PHENOBARBITOL, Method: STANDARD PLATE) “active; positive”; (Test System: AMES SALMONELLA TYPHIMURIUM, Strain/Indicator: TA1537, Metabolic Activation: RAT, LIVER, S-9, KC500 OR PHENOBARBITAL, Method: LIQUID SUSPENSION) “active; positive”; (Test System: AMES SALMONELLA TYPHIMURIUM, Strain/Indicator: TA1538, Metabolic Activation: NONE, Method: STANDARD PLATE) “active; positive”. Besides, the mutagenic call is, setting by setting: (Test System: AMES SALMONELLA TYPHIMURIUM, Strain/Indicator: TA1538, Metabolic Activation: RAT, LIVER, S-9, AROCLOR 1254 OR PHENOBARBITOL, Method: STANDARD PLATE) “active; positive”; (Test System: AMES SALMONELLA TYPHIMURIUM, Strain/Indicator: TA1538, Metabolic Activation: RAT, LIVER, S-9, KC500 OR PHENOBARBITAL, Method: LIQUID SUSPENSION) “active; positive”; (Test System: CHINESE HAMSTER OVARY, Strain/Indicator: CHO-K1-BH4 (HGPRT), Metabolic Activation: NONE, Method: SUSPENSION/PLATE) “active; positive”; (Test System: MOUSE LYMPHOMA, Strain/Indicator: L5178Y (TK+/TK-), Metabolic Activation: NONE, Method: SUSPENSION/PLATE) “active; positive”; (Test System: MOUSE LYMPHOMA, Strain/Indicator: L5178Y (TK+/TK-), Metabolic Activation: RAT, LIVER, S-9, AROCLOR 1254, Method: SUSPENSION/PLATE) “active; positive”.
With `O=S(c1cc(Cl)cc(Cl)c1O)c1cc(Cl)cc(Cl)c1O`, the mutagenic call by setting is: (Test System: AMES SALMONELLA TYPHIMURIUM, Strain/Indicator: TA97, Metabolic Activation: NONE, Method: STANDARD PLATE) “inactive; negative”; (Test System: AMES SALMONELLA TYPHIMURIUM, Strain/Indicator: TA97, Metabolic Activation: RAT, LIVER, S-9, AROCLOR 1254, Method: STANDARD PLATE) “inactive; negative”; under setting [3], “active; positive”; under setting [4], “inactive; negative”; under setting [5], “active; positive”; under setting [6], “inactive; negative”. The mutagenic call was “inactive; negative” (Test System: AMES SALMONELLA TYPHIMURIUM, Strain/Indicator: TA102, Metabolic Activation: NONE, Method: STANDARD PLATE) and “inactive; negative” (Test System: AMES SALMONELLA TYPHIMURIUM, Strain/Indicator: TA102, Metabolic Activation: RAT, LIVER, S-9, AROCLOR 1254, Method: STANDARD PLATE).
For the compound `CC(=O)Nc1snc2ccccc12`, the mutagenic call was “inactive; negative” under setting [3]; “inactive; negative” (Test System: AMES SALMONELLA TYPHIMURIUM, Strain/Indicator: TA98, Metabolic Activation: S-9, Method: STANDARD PLATE); “inactive; negative” under setting [5]; “active; positive” (Test System: AMES SALMONELLA TYPHIMURIUM, Strain/Indicator: TA100, Metabolic Activation: S-9, Method: STANDARD PLATE); “inactive; negative” under setting [7]; “inactive; negative” (Test System: AMES SALMONELLA TYPHIMURIUM, Strain/Indicator: TA1535, Metabolic Activation: S-9, Method: STANDARD PLATE). The mutagenic call runs as follows: under setting [8], “active; positive”; (Test System: AMES SALMONELLA TYPHIMURIUM, Strain/Indicator: TA1537, Metabolic Activation: S-9, Method: STANDARD PLATE) “active; positive”.
